According to US20240116926A1, “HETEROAROMATIC COMPOUNDS” (AstraZeneca AB, priority 2022, published 2024):
In brackets after ≈: the same amount, converted by molar mass.

Assays:
[1] = tested on: MCF7-Luciferase cell line; assay: Control reporter (MCF7-Luciferase); assay type: cell-based; details: MCF7-Luciferase cells, luciferase activity after 24 hours
Procedure: (iii) Control Reporter (MCF7-Luciferase)
MCF7-Luciferase cell line was obtained from […] (catalog number SC050-L) and was maintained in DMEM containing 10% fetal calf serum, 2 mM glutamine. Cells were grown in a humidified incubator at 37° C. with 5% CO2. Cells were distributed to flat bottom white polystyrene TC treated 384 well plates at a density of 3,500 cells/well in 30 μL. Cells were incubated for 24 hours at 37° C. with 5% CO2. Cells were acoustically dosed using an Echo 555, with compounds serially diluted in 100% DMSO. Plates were incubated for an additional 24 hours. Cells were examined for luciferase activity through the addition of 30 μL Bright-Glo luciferase (Promega catalog number E2620). Plates were incubated for 10 minutes at room temperature and luminescence was read using Tecan plate reader. The data obtained with each compound was exported to […] software to perform curve fitting analysis.

MCF7-Tead cell line = assay: TEAD reporter assay; assay type: cell-based; details: MCF7-Tead cells, luciferase activity after 24 hours
Procedure: MCF7-Tead cell line was obtained from BPS BIOSCIENCE (catalog number 60618) and was maintained in DMEM containing 10% fetal calf serum, 2 mM glutamine, and 400 μg/ml G418. Cells were grown in a humidified incubator at 37° C. with 5% CO2. Cells were distributed to flat bottom white polystyrene TC treated 384 well plates at a density of 3,500 cells/well in 30 uL. Cells were incubated for 24 hours at 37° C. with 5% CO2. Cells were acoustically dosed using an Echo 555, with compounds serially diluted in 100% DMSO. Plates were incubated for an additional 24 hours. Cells were examined for luciferase activity through the addition of 30 μL Bright-Glo luciferase (Promega catalog number E2620). Plates were incubated for 10 minutes at room temperature and luminescence was read using Tecan plate reader. The data obtained with each compound was exported to […] software to perform curve fitting analysis.

[2] = Solubility (thermodynamic, shake-flask); assay type: physicochemical; details: thermodynamic from solid; aqueous phosphate buffer (pH 7.4), 24 hours at 25° C.
Procedure: The thermodynamic solubility of a research compound is measured under standard conditions. It is a shake-flask approach that uses 10 mM DMSO solutions which are supplied from the Compound Managements liquid store and is a high throughput method. The dried compounds are equilibrated in an aqueous phosphate buffer (pH 7.4) for 24 hours at 25° C., the portion with the dissolved compound is then separated from the remains. The solutions are analyzed and quantified using UPLC/MS/MS, QC-samples are incorporated in each assay-run to ensure the quality of the assay.

TEAD4(217-434) = TEAD4(217-434) (Homo sapiens (Human), UniProt Q15561); assay: TEAD4 FRET; assay type: binding; details: depalmitoylated, biotinylated TEAD4(217-434), FAM labelled Probe A, 120 min at 25° C.
TEAD4(217-434), sequence (Q15561 217-434): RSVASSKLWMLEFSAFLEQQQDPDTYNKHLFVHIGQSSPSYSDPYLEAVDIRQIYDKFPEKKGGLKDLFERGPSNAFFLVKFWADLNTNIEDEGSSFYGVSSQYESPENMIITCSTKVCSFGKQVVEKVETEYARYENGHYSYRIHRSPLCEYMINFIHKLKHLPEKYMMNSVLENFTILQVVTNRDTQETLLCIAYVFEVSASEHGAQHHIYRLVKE
Procedure: Compounds were dosed with a final DMSO concentration of 1% (v/v). Compound IC50 values were assessed following a 10-point, half-log10 dilution schema starting at 100 μM compound concentration. Specifically, human TEAD protein from TEAD4(217-434) was cloned into an overexpression vector, expressed as an N-terminal HIS-TEV-Avi-tagged fusion protein in E coli, and subsequently purified, then protein was chemically depalmitoylated & biotinylated. The assay was performed in 384-well LV plates (384-well black, medium binding, PS, HIBASE, GREINER #784076) and run in the presence and absence of the compound of interest. Each well of 5 μL assay mixture contained 10 mM Tris-HCl (pH 7.5), 100 mM NaCl, 0.05 mM EDTA, 1 mM TECP, 1% DMSO, 0.03% Pluronic acid F127, 20 nM dePal Avi TEAD4 (217-434)-depalmitoylated & biotinylated protein, 0.8 nM Streptavidin Terbium cryptate (CisBio #610SATLB), 625 nM FAM labelled Probe A. Reactions were incubated at 25° C. for 120 min before reading on a PHERASTAR FSX Plate Reader (337 520 490 HTRF module required) (Supplier BMP).
The data file from the PHERAstar FSX contains both the acceptor (520 nm) and donor channels (490 nm) (“Channel A”=acceptor channel (520 nm), “Channel B”=donor channel (490 nm)). The ratio of the donor and acceptor (Channel A/Channel B) is calculated within Genedata Assay Analyzer.
Probe A is 3′,6′-dihydroxy-3-oxo-N-{8-[2-(5-{2-[4-(trifluoromethyl)anilino]phenyl}-2H-tetrazol-2-yl)acetamido]octyl}-3H-spiro[[2]benzofuran-1,9′-xanthene]-5-carboxamide;

**Q.** With `C=CC(=O)N1C[C@H](F)[C@H](Nc2ncc(-c3ccc(C(F)(F)F)cn3)c3ncccc23)C1` [Example 36, 1-((3S,4R)-3-fluoro-4-((8-(5-(trifluoromethyl)pyridin-2-yl)-1,6-naphthyridin-5-yl)amino)pyrrolidin-1-yl)prop-2-en-1-one] as the compound, how does the IC50 [1] read?
**A.** > 31.7 µM

**Q.** And the IC50 (MCF7-Tead cell line)?
**A.** 0.011 µM

**Q.** What about the solubility at 24 h [2] of the same compound?
**A.** 82 µM (≈ 35.4 µg/mL)

**Q.** Which results are given for `C=CC(=O)N1C[C@H](F)[C@H](Nc2nnc(-c3ccc(C(F)(F)F)cc3)c3cccnc23)C1` [Example 2, 1-((3S,4R)-3-fluoro-4-((5-(4-(trifluoromethyl)phenyl)pyrido[2,3-d]pyridazin-8-yl)amino)pyrrolidin-1-yl)prop-2-en-1-one]?
**A.** IC50 [1]: 12.9 µM; IC50 (MCF7-Tead cell line): 0.022 µM; IC50 (TEAD4(217-434)): 0.056 µM; solubility at 24 h [2]: 188 µM (≈ 81.1 µg/mL)

**Q.** What does the source list for `C=CC(=O)N1C[C@H](O)[C@H](Nc2ncc(-c3ccc(C(F)(F)F)cc3)c3ncccc23)C1` [Example 34, 1-((3S,4R)-3-hydroxy-4-((8-(4-(trifluoromethyl)phenyl)-1,6-naphthyridin-5-yl)amino)pyrrolidin-1-yl)prop-2-en-1-one]?
**A.** IC50 [1]: > 31.7 µM; IC50 (MCF7-Tead cell line): 0.009 µM; IC50 (TEAD4(217-434)): 0.017 µM; solubility at 24 h [2]: 44 µM (≈ 18.9 µg/mL)

**Q.** Which results are given for `C=CC(=O)N1C[C@H](F)[C@H](Nc2ncc(-c3ccc(C(F)(F)F)cc3)c3nccnc23)C1` [Example 43, 1-((3S,4R)-3-fluoro-4-((8-(4-(trifluoromethyl)phenyl)pyrido[3,4-b]pyrazin-5-yl)amino)pyrrolidin-1-yl)prop-2-en-1-one]?
**A.** IC50 [1]: 13.3 µM; IC50 (MCF7-Tead cell line): 0.011 µM; IC50 (TEAD4(217-434)): 0.012 µM; solubility at 24 h [2]: 16 µM (≈ 6.9 µg/mL)

**Q.** With `C=CC(=O)N1C[C@@H](CN(C)C)[C@H](Nc2nnc(-c3ccc(C(F)(F)F)cc3)c3ccccc23)C1` [Example 46, 1-((3R,4S)-3-((dimethylamino)methyl)-4-((4-(4-(trifluoromethyl)phenyl)phthalazin-1-yl)amino)pyrrolidin-1-yl)prop-2-en-1-one] as the compound, how does the IC50 [1] read?
**A.** 19.4 µM

**Q.** And the IC50 (MCF7-Tead cell line)?
**A.** 0.283 µM

**Q.** And the IC50 (TEAD4(217-434))?
**A.** 0.83 µM

**Q.** What does the source list for `C=CC(=O)N1CC(Nc2nc(-c3ccc(C(F)(F)F)cc3)nc3ccccc23)C1` [Comparative Example B, 1-[3-({2-[4-(trifluoromethyl)phenyl]-4-quinazolinyl}amino)-1-azetidinyl]-2-propen-1-one, reference compound]?
**A.** IC50 [1]: > 31.7 µM; IC50 (MCF7-Tead cell line): 0.161 µM; IC50 (TEAD4(217-434)): 0.03 µM; solubility at 24 h [2]: 2 µM (≈ 0.797 µg/mL)

**Q.** For `C=CC(=O)N1C[C@H](O)[C@H](Nc2nnc(-c3ccc(C(F)(F)F)cc3)c3ccccc23)C1` [Example 12, 1-((3S,4R)-3-hydroxy-4-((4-(4-(trifluoromethyl)phenyl)phthalazin-1-yl)amino)pyrrolidin-1-yl)prop-2-en-1-one], which IC50 [1] is on record?
**A.** 23.5 µM

**Q.** And the IC50 (MCF7-Tead cell line)?
**A.** 0.099 µM

**Q.** What about the IC50 (TEAD4(217-434)) of the same compound?
**A.** 0.052 µM

**Q.** What about the solubility at 24 h [2] of the same compound?
**A.** 370 µM (≈ 159 µg/mL)

**Q.** Which results are given for `C=CC(=O)N1C[C@H](F)[C@H](Nc2ncc(-c3ccc(C(F)(F)F)cc3)c3ncccc23)C1` [Example 44, 1-((3S,4R)-3-fluoro-4-((8-(4-(trifluoromethyl)phenyl)-1,6-naphthyridin-5-yl)amino)pyrrolidin-1-yl)prop-2-en-1-one]?
**A.** IC50 [1]: 18 µM; IC50 (MCF7-Tead cell line): 0.022 µM; IC50 (TEAD4(217-434)): 0.016 µM; solubility at 24 h [2]: 3 µM (≈ 1.29 µg/mL)

**Q.** Which IC50 [1] does the source give for `C=CC(=O)N1C[C@H](Nc2nnc(-c3ccc(C(F)(F)F)cc3)c3ccccc23)[C@@H](C(N)=O)C1` (single isomer, unassigned; enantiomer 1) [Example 31, enantiomer 1 of trans-1-acryloyl-4-((4-(4-(trifluoromethyl)phenyl)phthalazin-1-yl)amino)pyrrolidine-3-carboxamide] here?
**A.** 31.1 µM

**Q.** What about the IC50 (MCF7-Tead cell line) of the same compound?
**A.** 0.058 µM

**Q.** And the IC50 (TEAD4(217-434))?
**A.** 0.073 µM

**Q.** What about the solubility at 24 h [2] of the same compound?
**A.** 534 µM (≈ 243 µg/mL)

**Q.** What does the source list for `C=CS(=O)(=O)N1CC[C@H](Nc2nnc(-c3ccc(C(F)(F)F)cc3)c3ccccc23)C1` [Example 21, (S)-4-(4-(trifluoromethyl)phenyl)-N-(1-(vinylsulfonyl)pyrrolidin-3-yl)phthalazin-1-amine]?
**A.** IC50 [1]: 15.1 µM; IC50 (MCF7-Tead cell line): 0.929 µM; IC50 (TEAD4(217-434)): 0.042 µM; solubility at 24 h [2]: 34 µM (≈ 15.2 µg/mL)

**Q.** Which results are given for `C=CC(=O)N1CC(C#N)[C@@H](Nc2nnc(-c3ccc(C(F)(F)F)cc3)c3ccccc23)C1` (single isomer, unassigned; enantiomer 1) [Example 30, enantiomer 1 of trans-1-acryloyl-4-((4-(4-(trifluoromethyl)phenyl)phthalazin-1-yl)amino)pyrrolidine-3-carbonitrile]?
**A.** IC50 [1]: 13 µM; IC50 (MCF7-Tead cell line): 0.143 µM; IC50 (TEAD4(217-434)): 0.1 µM; solubility at 24 h [2]: 191 µM (≈ 83.5 µg/mL)

**Q.** Which IC50 [1] does the source give for `C=CC(=O)N1C[C@@H](F)[C@H](Nc2nnc(-c3ccc(C(F)(F)F)cc3)c3ncccc23)C1` [Example 3, 1-((3R,4R)-3-fluoro-4-((8-(4-(trifluoromethyl)phenyl)pyrido[2,3-d]pyridazin-5-yl)amino)pyrrolidin-1-yl)prop-2-en-1-one] here?
**A.** 27.3 µM

**Q.** What about the IC50 (MCF7-Tead cell line) of the same compound?
**A.** 0.067 µM

**Q.** What about the IC50 (TEAD4(217-434)) of the same compound?
**A.** 0.093 µM

**Q.** What about the solubility at 24 h [2] of the same compound?
**A.** 10 µM (≈ 4.31 µg/mL)

**Q.** Which IC50 [1] does the source give for `C=CC(=O)N1C[C@@H](F)[C@H](Nc2nnc(-c3ccc(C(F)(F)F)cc3)c3cccnc23)C1` [Example 4, 1-((3R,4R)-3-fluoro-4-((5-(4-(trifluoromethyl)phenyl)pyrido[2,3-d]pyridazin-8-yl)amino)pyrrolidin-1-yl)prop-2-en-1-one] here?
**A.** 26 µM

**Q.** What about the IC50 (MCF7-Tead cell line) of the same compound?
**A.** 0.192 µM

**Q.** And the IC50 (TEAD4(217-434))?
**A.** 0.41 µM

**Q.** What about the solubility at 24 h [2] of the same compound?
**A.** 230 µM (≈ 99.2 µg/mL)

**Q.** Which results are given for `C=CC(=O)N1CC[C@@H](Nc2ncc(-c3ccc(C(F)(F)F)cn3)c3ncccc23)C1` [Comparative Example A, (R)-1-(3-((8-(5-(trifluoromethyl)pyridin-2-yl)-1,6-naphthyridin-5-yl)amino)pyrrolidin-1-yl)prop-2-en-1-one, reference compound]?
**A.** IC50 [1]: > 31.7 µM; IC50 (MCF7-Tead cell line): 0.592 µM

**Q.** Which results are given for `C=CC(=O)N1C[C@H](F)[C@H](Nc2nnc(-c3ccc(C(F)(F)F)cc3)c3ccccc23)C1` [Example 10, 1-((3S,4R)-3-fluoro-4-((4-(4-(trifluoromethyl)phenyl)phthalazin-1-yl)amino)pyrrolidin-1-yl)prop-2-en-1-one]?
**A.** IC50 [1]: 15.6 µM; IC50 (MCF7-Tead cell line): 0.015 µM; IC50 (TEAD4(217-434)): 0.032 µM; solubility at 24 h [2]: 67 µM (≈ 28.8 µg/mL)

**Q.** Which IC50 [1] does the source give for `C=CC(=O)N1C[C@@H](F)[C@H](Nc2nnc(-c3ccc(C(F)(F)F)cc3)c3ccccc23)C1` [Example 11, 1-((3R,4R)-3-fluoro-4-((4-(4-(trifluoromethyl)phenyl)phthalazin-1-yl)amino)pyrrolidin-1-yl)prop-2-en-1-one] here?
**A.** 10.2 µM

**Q.** What about the IC50 (MCF7-Tead cell line) of the same compound?
**A.** 0.156 µM

**Q.** What about the IC50 (TEAD4(217-434)) of the same compound?
**A.** 0.033 µM

**Q.** What about the solubility at 24 h [2] of the same compound?
**A.** 9 µM (≈ 3.87 µg/mL)

**Q.** What does the source list for `C=CC(=O)N1C[C@H](C#N)[C@H](Nc2nnc(-c3ccc(C(F)(F)F)cc3)c3ccccc23)C1` (single isomer, unassigned; enantiomer 1) [Example 29, enantiomer 1 of cis-1-acryloyl-4-((4-(4-(trifluoromethyl)phenyl)phthalazin-1-yl)amino)pyrrolidine-3-carbonitrile]?
**A.** IC50 [1]: 22.2 µM; IC50 (MCF7-Tead cell line): 0.094 µM; solubility at 24 h [2]: 7 µM (≈ 3.06 µg/mL)

**Q.** With `C#CC(=O)N1CC[C@H](Nc2nnc(-c3ccc(C(F)(F)F)cc3)c3ccccc23)C1` [Example 19, (S)-1-(3-((4-(4-(trifluoromethyl)phenyl)phthalazin-1-yl)amino)pyrrolidin-1-yl)prop-2-yn-1-one] as the compound, how does the IC50 [1] read?
**A.** 0.977 µM

**Q.** What about the IC50 (MCF7-Tead cell line) of the same compound?
**A.** 0.515 µM

**Q.** What about the solubility at 24 h [2] of the same compound?
**A.** 38 µM (≈ 15.6 µg/mL)
